Biological target: human NK-3 receptor (Homo sapiens (Human), UniProt P29371)
Assay: 3H-SB222200 binding competition assay with human NK-3 receptor
Conditions: 3H-SB222200 displacement, CHO cell membranes expressing human NK3 receptor; read-out: Ki range
Procedure, shortened: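 Radioligand displacement: 5 nM tritiated SB222200 competed by varying compound concentrations on recombinant CHO membranes bearing human NK3, buffer pH 7.4 with HEPES, NaCl, CaCl2, MgCl2, BSA and saponin. Filter-bound radioactivity quantified; calculated Ki given as ranges from +++ (<500 nM) to # (>5 μM).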

Sequence of human NK-3 receptor (P29371 whole entry): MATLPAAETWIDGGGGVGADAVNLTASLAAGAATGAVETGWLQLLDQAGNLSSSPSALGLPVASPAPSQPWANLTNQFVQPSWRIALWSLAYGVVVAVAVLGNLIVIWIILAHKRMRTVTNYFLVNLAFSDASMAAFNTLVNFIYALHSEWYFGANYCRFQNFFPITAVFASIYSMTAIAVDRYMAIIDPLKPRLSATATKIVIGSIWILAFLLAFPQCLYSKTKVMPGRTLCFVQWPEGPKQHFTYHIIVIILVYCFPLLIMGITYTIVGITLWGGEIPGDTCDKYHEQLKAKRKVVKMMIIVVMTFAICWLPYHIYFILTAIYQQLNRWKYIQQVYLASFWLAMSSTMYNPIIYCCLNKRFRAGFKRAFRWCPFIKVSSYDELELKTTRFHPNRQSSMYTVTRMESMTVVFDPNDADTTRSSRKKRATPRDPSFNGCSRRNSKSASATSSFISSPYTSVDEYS

## O=C(c1cnc(-c2ccccc2)nc1)N1CCn2c(nnc2-c2ccc3ccccc3n2)C1 [Compound 92, (2-phenylpyrimidin-5-yl)(3-(quinolin-2-yl)-5,6-dihydro-[1,2,4]triazolo[4,3-a]pyrazin-7(8H)-yl)methanone]
  Ki: 1000 to 5000 nM

## O=C(c1ccc(-c2ccccc2)cc1)N1CCn2c(nnc2-c2ccc3ccccc3n2)C1 [Compound 19, [1,1′-biphenyl]-4-yl(3-(quinolin-2-yl)-5,6-dihydro-[1,2,4]triazolo[4,3-a]pyrazin-7(8H)-yl)methanone]
  Ki: < 500 nM

## N#Cc1ccc(-c2nc(-c3nnc4n3CCN(C(=O)c3ccc(-c5cccs5)cc3)C4)cs2)cc1 [Compound 236, 4-(4-(7-(4-(thiophen-2-yl)benzoyl)-5,6,7,8-tetrahydro-[1,2,4]triazolo[4,3-a]pyrazin-3-yl)thiazol-2-yl)benzonitrile]
  Ki: < 500 nM

## CC1CN(c2nc(-c3nnc4n3CCN(C(=O)c3ccc(-c5cccs5)cc3)C4)cs2)C(C)CO1 (stereo not shown) [Compound 261, (3-(2-(2,5-dimethylmorpholino)thiazol-4-yl)-5,6-dihydro-[1,2,4]triazolo[4,3-a]pyrazin-7(8H)-yl)(4-(thiophen-2-yl)phenyl)methanone]
  Ki: < 500 nM

## O=C(c1ccc(-c2cccs2)cc1)N1CCn2c(nnc2-c2csc(-c3ncccn3)n2)C1 [Compound 226, (3-(2-(pyrimidin-2-yl)thiazol-4-yl)-5,6-dihydro-[1,2,4]triazolo[4,3-a]pyrazin-7(8H)-yl)(4-(thiophen-2-yl)phenyl)methanone]
  Ki: > 5000 nM

## CC1c2nnc(-c3csc(-c4ccc(F)cc4F)n3)n2CCN1C(=O)c1ccc(-c2cccs2)cc1 (stereo not shown) [Compound 80, (3-(2-(2,4-difluorophenyl)thiazol-4-yl)-8-methyl-5,6-dihydro-[1,2,4]triazolo[4,3-a]pyrazin-7(8H)-yl)(4-(thiophen-2-yl)phenyl)methanone]
  Ki: < 500 nM

## C[C@H]1c2nnc(-c3csc(-c4ccc(F)cc4F)n3)n2CCN1C(=O)c1ccc(-c2cccs2)cc1 [Compound 165, (S)-(3-(2-(2,4-difluorophenyl)thiazol-4-yl)-8-methyl-5,6-dihydro-[1,2,4]triazolo[4,3-a]pyrazin-7(8H)-yl)(4-(thiophen-2-yl)phenyl)methanone]
  Ki: < 500 nM

## O=C(c1ccc(-c2ccccc2)cc1)N1CCn2c(nnc2-c2csc(N3CCOCC3)n2)C1 [Compound 20, [1,1′-biphenyl]-4-yl(3-(2-morpholinothiazol-4-yl)-5,6-dihydro-[1,2,4]triazolo[4,3-a]pyrazin-7(8H)-yl)methanone]
  Ki: < 500 nM

## C[C@H]1c2nnc(-c3csc(-c4ccc(F)cc4)n3)n2CCN1C(=O)c1ccc(F)cc1 [Compound 160, (S)-(4-fluorophenyl)(3-(2-(4-fluorophenyl)thiazol-4-yl)-8-methyl-5,6-dihydro-[1,2,4]triazolo[4,3-a]pyrazin-7(8H)-yl)methanone]
  Ki: 1000 to 5000 nM

## O=C(C1CCC(c2ccccc2)CC1)N1CCn2c(nnc2-c2ccc3ccccc3n2)C1 (stereo not shown) [Compound 93, (4-phenylcyclohexyl)(3-(quinolin-2-yl)-5,6-dihydro-[1,2,4]triazolo[4,3-a]pyrazin-7(8H)-yl)methanone]
  Ki: 1000 to 5000 nM

## O=C(c1ccc(-c2ccccc2)cc1)N1CCn2c(nnc2-c2csc(-c3ccccc3F)n2)C1 [Compound 182, [1,1′-biphenyl]-4-yl(3-(2-(2-fluorophenyl)thiazol-4-yl)-5,6-dihydro-[1,2,4]triazolo[4,3-a]pyrazin-7(8H)-yl)methanone]
  Ki: < 500 nM

## COc1ccc(-c2nc(-c3nnc4n3CCN(C(=O)c3ccc(F)cc3)C4)cs2)cc1OC [Compound 40, (3-(2-(3,4-dimethoxyphenyl)thiazol-4-yl)-5,6-dihydro-[1,2,4]triazolo[4,3-a]pyrazin-7(8H)-yl)(4-fluorophenyl)methanone]
  Ki: < 500 nM

## Cn1nc(-c2nnc3n2CCN(C(=O)c2ccc(-c4cccs4)cc2)C3)cc1-c1ccccc1 [Compound 222, (3-(1-methyl-5-phenyl-1H-pyrazol-3-yl)-5,6-dihydro-[1,2,4]triazolo[4,3-a]pyrazin-7(8H)-yl)(4-(thiophen-2-yl)phenyl)methanone]
  Ki: < 500 nM

## COc1ccccc1-c1nc(-c2nnc3n2CCN(C(=O)c2ccc(F)cc2)C3)cs1 [Compound 201, (4-fluorophenyl)(3-(2-(2-methoxyphenyl)thiazol-4-yl)-5,6-dihydro-[1,2,4]triazolo[4,3-a]pyrazin-7(8H)-yl)methanone]
  Ki: 1000 to 5000 nM

## O=C(c1ccc(-c2cccs2)cc1)N1CCn2c(nnc2-c2ccc3ccccc3n2)C1 [Compound 69, (3-(quinolin-2-yl)-5,6-dihydro-[1,2,4]triazolo[4,3-a]pyrazin-7(8H)-yl)(4-(thiophen-2-yl)phenyl)methanone]
  Ki: < 500 nM

## C[C@H]1c2nnc(-c3csc(-c4ccccc4)n3)n2CCN1C(=O)c1ccc(F)cc1 [Compound 167, (S)-(4-fluorophenyl)(8-methyl-3-(2-phenylthiazol-4-yl)-5,6-dihydro-[1,2,4]triazolo[4,3-a]pyrazin-7(8H)-yl)methanone]
  Ki: 500 to 1000 nM

## CC1c2nnc(-c3csc(-c4ccc(F)cc4)n3)n2CCN1C(=O)c1ccc(-c2cccs2)cc1 (stereo not shown) [Compound 78, (3-(2-(4-fluorophenyl)thiazol-4-yl)-8-methyl-5,6-dihydro-[1,2,4]triazolo[4,3-a]pyrazin-7(8H)-yl)(4-(thiophen-2-yl)phenyl)methanone]
  Ki: < 500 nM

## COCC1CCCCN1c1nc(-c2nnc3n2CCN(C(=O)c2ccc(-c4cccs4)cc2)C3)cs1 (stereo not shown) [Compound 279, (3-(2-(2-(methoxymethyl)piperidin-1-yl)thiazol-4-yl)-5,6-dihydro-[1,2,4]triazolo[4,3-a]pyrazin-7(8H)-yl)(4-(thiophen-2-yl)phenyl)methanone]
  Ki: < 500 nM

## O=C(c1ccc(-c2cccs2)cc1)N1CCn2c(nnc2-c2csc(-c3ccccc3F)n2)C1 [Compound 181, (3-(2-(2-fluorophenyl)thiazol-4-yl)-5,6-dihydro-[1,2,4]triazolo[4,3-a]pyrazin-7(8H)-yl)(4-(thiophen-2-yl)phenyl)methanone]
  Ki: < 500 nM

## Cn1nc(-c2nnc3n2CCN(C(=O)c2ccc(F)cc2)C3)cc1-c1ccccc1 [Compound 238, (4-fluorophenyl)(3-(1-methyl-5-phenyl-1H-pyrazol-3-yl)-5,6-dihydro-[1,2,4]triazolo[4,3-a]pyrazin-7(8H)-yl)methanone]
  Ki: < 500 nM

## COCC1CCCCN1c1nc(-c2nnc3n2CCN(C(=O)c2ccc(F)cc2)C3)cs1 (stereo not shown) [Compound 277, (4-fluorophenyl)(3-(2-(2-(methoxymethyl)piperidin-1-yl)thiazol-4-yl)-5,6-dihydro-[1,2,4]triazolo[4,3-a]pyrazin-7(8H)-yl)methanone]
  Ki: > 5000 nM

## Cc1nc(-c2ccccc2)sc1-c1nnc2n1CCN(C(=O)c1ccc(-c3ccccc3)cc1)C2C (stereo not shown) [Compound 72, [1,1′-biphenyl]-4-yl(8-methyl-3-(4-methyl-2-phenylthiazol-5-yl)-5,6-dihydro-[1,2,4]triazolo[4,3-a]pyrazin-7(8H)-yl)methanone]
  Ki: < 500 nM

## Cc1ccc(-c2ccc(C(=O)N3CCn4c(-c5csc(-c6ccc(F)cc6)n5)nnc4C3C)cc2)s1 (stereo not shown) [Compound 215, (3-(2-(4-fluorophenyl)thiazol-4-yl)-8-methyl-5,6-dihydro-[1,2,4]triazolo[4,3-a]pyrazin-7(8H)-yl)(4-(5-methylthiophen-2-yl)phenyl)methanone]
  Ki: < 500 nM

## O=C(c1cc(-c2ccc(C(F)(F)F)cc2)n[nH]1)N1CCn2c(nnc2-c2ccccn2)C1 [Compound 17, (3-(pyridin-2-yl)-5,6-dihydro-[1,2,4]triazolo[4,3-a]pyrazin-7(8H)-yl)(3-(4-(trifluoromethyl)phenyl)-1H-pyrazol-5-yl)methanone]
  Ki: 1000 to 5000 nM

## CS(=O)(=O)Nc1ccc(-c2nc(-c3nnc4n3CCN(C(=O)c3ccc(-c5cccs5)cc3)C4)cs2)cc1 [Compound 283, N-(4-(4-(7-(4-(thiophen-2-yl)benzoyl)-5,6,7,8-tetrahydro-[1,2,4]triazolo[4,3-a]pyrazin-3-yl)thiazol-2-yl)phenyl)methanesulfonamide]
  Ki: 500 to 1000 nM

## CC1CN(c2nc(-c3nnc4n3CCN(C(=O)c3ccc(-c5cccs5)cc3)C4)cs2)CCO1 (stereo not shown) [Compound 273, (3-(2-(2-methylmorpholino)thiazol-4-yl)-5,6-dihydro-[1,2,4]triazolo[4,3-a]pyrazin-7(8H)-yl)(4-(thiophen-2-yl)phenyl)methanone]
  Ki: < 500 nM

## O=C(c1ccc(F)cc1)N1CCn2c(nnc2-c2csc(-c3ccccc3F)n2)C1 [Compound 180, (4-fluorophenyl)(3-(2-(2-fluorophenyl)thiazol-4-yl)-5,6-dihydro-[1,2,4]triazolo[4,3-a]pyrazin-7(8H)-yl)methanone]
  Ki: < 500 nM

## CC1c2nnc(-c3csc(-c4ccccc4)n3)n2CCN1C(=O)c1ccc(-c2ccsc2)cc1 (stereo not shown) [Compound 64, (8-methyl-3-(2-phenylthiazol-4-yl)-5,6-dihydro-[1,2,4]triazolo[4,3-a]pyrazin-7(8H)-yl)(4-(thiophen-3-yl)phenyl)methanone]
  Ki: < 500 nM

## O=C(c1ccccc1-c1ccccc1)N1CCn2c(nnc2-c2ccc3ccccc3n2)C1 [Compound 96, [1,1′-biphenyl]-2-yl(3-(quinolin-2-yl)-5,6-dihydro-[1,2,4]triazolo[4,3-a]pyrazin-7(8H)-yl)methanone]
  Ki: > 5000 nM

## O=C(c1ccc(F)cc1)N1CCn2c(nnc2-c2csc(N3CCCCC3)n2)C1 [Compound 33, (4-fluorophenyl)(3-(2-(piperidin-1-yl)thiazol-4-yl)-5,6-dihydro-[1,2,4]triazolo[4,3-a]pyrazin-7(8H)-yl)methanone]
  Ki: < 500 nM

## O=C(c1cc(-c2ccc(Oc3ccccc3)cc2)n[nH]1)N1CCn2c(nnc2-c2ccccn2)C1 [Compound 18, (3-(4-phenoxyphenyl)-1H-pyrazol-5-yl)(3-(pyridin-2-yl)-5,6-dihydro-[1,2,4]triazolo[4,3-a]pyrazin-7(8H)-yl)methanone]
  Ki: 1000 to 5000 nM

Reference: patent publication US10544150B2, “NK-3 receptor selective antagonist compounds, pharmaceutical composition and methods for use in NK-3 receptors mediated disorders” (Ogeda SA, priority 2010, dated 2020)
